Test results taken from patent US12414961B2, “Substituted nucleosides and nucleotides for treating viral infections” (priority 2013, dated 2025).

What was measured:
[1] = Cytotoxicity (CC50) BxPC3; details: human, BxPC3 cells
[2] = Cytotoxicity (CC50) Huh-7; details: human, Huh-7 cells
[3] = Cytotoxicity in Vero cells (Dengue assay); details: African green monkey
[4] = Cytotoxicity (CC50) CEM; details: human, CEM cells
[5] = system: Dengue Type 2; assay: Anti-Dengue virus cytoprotection assay, Huh-7 cells; details: Huh-7, read-out: Dengue Type 2 Huh-7 Cells (EC50 uM)
[6] = Cytotoxicity (CC50) A204; format: cell-based; details: human, A204 cells
[7] = Cytotoxicity (CC50) IEC-6; format: cell-based; details: rat, IEC-6 cells
[8] = system: Dengue Type 2; assay: Anti-Dengue virus cytoprotection assay, Vero cells; details: read-out: Dengue Type 2 Vero Cells (EC50 uM)
[9] = Cytotoxicity (CC50) H9c; format: cell-based; details: rat, H9c cells
[10] = Cytotoxicity (CC50) HepG2; details: human, HepG2 cells
[11] = Cytotoxicity in Huh-7 cells (Dengue assay); details: human, Huh-7 cells
[12] = system: Huh-7 cells; assay: Cytotoxicity in Huh-7 cells (Dengue assay); details: read-out: CC50 uM; Cell Line Huh-7; […], 3, 4 table
[13] = Cytotoxicity in HepG2 cells (HBV assay); format: cell-based; details: human, HepG2.2.15 cells; beside HBV
Protocol: The 50% cytotoxic concentration for the test materials are derived by measuring the reduction of the tetrazolium dye XTT in the treated tissue culture plates. XTT is metabolized by the mitochondrial enzyme […] to a soluble formazan product in metabolically active cells. […] The 2-4 hour incubation has been empirically determined to be within linear response range for XTT dye reduction with the indicated numbers of cells for each assay. […] Data were collected by Softmax 4.6 software and imported into an Excel spreadsheet for analysis.

[14] = Cytotoxicity in PBM cells; format: cell-based; details: human, peripheral blood mononuclear cells (PBMCs), PHA-P stimulated; beside HIV
[15] = system: HBV; assay: HBV antiviral assay; format: cell-based; details: Hepatitis B virus
Protocol: Ten microliters of cell culture supernatant collected on the sixth day was diluted in qPCR dilution buffer (40 μg/mL sheared salmon sperm DNA) and boiled for 15 minutes. Quantitative real time PCR was performed in […] using an Applied Biosystems 7900HT Sequence Detection System and the supporting SDS 2.4 software. Five microliters (5 μL) of boiled DNA for each sample and serial 10-fold dilutions of a quantitative DNA standard were subjected to real time Q-PCR using Platinum Quantitative PCR SuperMix-UDG (Invitrogen) and specific DNA oligonucleotide primers (IDT, Coralville, […]) HBV-AD38-qF1 (5′-[…] -3′) (SEQ ID NO: 1), HBV-AD38-qR1 (5′-AGT CCA AGA GTY CTC TTA TRY AAG ACC TT-3′) (SEQ ID NO: 2), and HBV-AD38-qP1 (5′-FAM CCG TGT GCA/ZEN/[…] -3′BHQ1) (SEQ ID NO: 3) at a final concentration of 0.2 μM for each primer in a total reaction volume of 15 μL. The HBV DNA copy number in each sample was interpolated from the standard curve by the SDS.24 software and the data were imported into an Excel spreadsheet for analysis.

[16] = system: Adenovirus; assay: Adenovirus antiviral assay; format: cell-based; details: unidentified adenovirus
[17] = system: HCMV; assay: HCMV antiviral assay; format: cell-based; details: Human betaherpesvirus 5
[18] = system: HIV; assay: HIV infected PBMC assay; format: cell-based; details: Human immunodeficiency virus 1, PBMC
Protocol: Fresh human peripheral blood mononuclear cells (PBMCs) were obtained from a commercial source (Biological Specialty) and were determined to be seronegative for HIV and HBV. Depending on the volume of donor blood received, the leukophoresed blood cells were washed several times with PBS. After washing, the leukophoresed blood was diluted 1:1 with Dulbecco's phosphate buffered saline (PBS) and layered over 15 mL of Ficoll-Hypaque density gradient in a 50 ml conical centrifuge tube. These tubes were centrifuged for 30 min at 600 g. Banded PBMCs were gently aspirated from the resulting interface and washed three times with PBS. […] After incubation, PBMCs were centrifuged and resuspended in tissue culture medium. The cultures were maintained until use by half-volume culture changes with fresh IL-2 containing tissue culture medium every 3 days. […]
Following addition of test compound to the wells, 50 uL of a predetermined dilution of HIV virus (prepared from 4× of final desired in-well concentration) was added, and mixed well. […] After 7 days in culture, HIV-1 replication was quantified in the tissue culture supernatant by measurement of reverse transcriptase (RT) activity. […]
Reverse Transcriptase Activity Assay—Reverse transcriptase activity was measured in cell-free supernatants using a standard radioactive incorporation polymerization assay. […]

[19] = Cytotoxicity in MRC-5 cells (HCMV, VZV assays); format: cell-based; details: human, MRC-5 cells; beside HCMV
[20] = system: MRC-5 Cells; assay: Cytotoxicity in MRC-5 cells (HCMV, VZV assays); format: cell-based; details: beside VZV
[21] = system: VZV; assay: VZV antiviral assay; format: cell-based; details: Human alphaherpesvirus 3
[22] = system: Huh-7 cells; assay: Cytotoxicity in Huh-7 cells (Adenovirus, HSV-1 assays); format: cell-based, human; details: beside HSV-1
[23] = system: HSV-1; assay: HSV-1 antiviral assay; format: cell-based; details: Human alphaherpesvirus 1

For `CC(C)OC(=O)[C@H](C)NP(=O)(OC[C@H]1O[C@@H](n2ccc(=O)[nH]c2=S)C(C)(O)[C@H]1O)Oc1ccccc1` (some centres unmarked) [drawing 387], which CC50 [1] is on record?
The CC50 was greater than 300 µM.

What about the CC50 [2] of the same molecule?
The CC50 was greater than 400 µM.

And the CC50 [3]?
Its CC50 is greater than 100 µM.

And the CC50 [4]?
Its CC50 is greater than 300 µM.

What about the EC50 [5] of the same molecule?
The EC50 was 5.1 µM.

What about the CC50 [6] of the same molecule?
The CC50 was 98 µM.

What about the CC50 [7] of the same molecule?
The CC50 was greater than 200 µM.

And the EC50 [8]?
Its EC50 is 2.02 µM.

And the CC50 [9]?
The CC50 was greater than 200 µM.

And the CC50 [10]?
Its CC50 is greater than 400 µM.

What about the CC50 [11] of the same molecule?
The CC50 was greater than 100 µM.

For `CC(C)OC(=O)[C@H](C)N[P@](=O)(OC[C@H]1O[C@@H](n2ccc(=O)[nH]c2=S)C(C)(O)[C@H]1O)Oc1ccccc1` (some centres unmarked) [drawing 393], which CC50 [12] is on record?
The CC50 was greater than 100 µM.

With `CC(C)OC(=O)[C@H](C)NP(=O)(OC[C@H]1O[C@@H](n2ccc(=O)[nH]c2=S)C(C)(O)[C@H]1O)Oc1ccccc1` (some centres unmarked) [drawing 394] as the molecule, how does the CC50 at 6 days [13] read?
The CC50 at 6 days was greater than 100 µM.

What about the CC50 at 7 days [14] of the same molecule?
Its CC50 at 7 days is greater than 100 µM.

And the EC50 [15]?
Its EC50 is greater than 100 µM.

What about the EC50 [16] of the same molecule?
The EC50 was greater than 100 µM.

And the EC50 [17]?
The EC50 was greater than 100 µM.

And the EC50 [18]?
The EC50 was greater than 100 µM.

And the CC50 [19]?
The CC50 was greater than 100 µM.

And the CC50 [20]?
Its CC50 is greater than 100 µM.

What about the EC50 [21] of the same molecule?
Its EC50 is greater than 100 µM.

What about the CC50 [22] of the same molecule?
Its CC50 is greater than 100 µM.

What about the EC50 [23] of the same molecule?
Its EC50 is greater than 100 µM.
